The values below come from US8227511B2, “Substituted chromanol derivatives and their use” (Bayer Intellectual Property GmbH, priority 2006, dated 2012).

Test [1] addresses T1, CETP (Homo sapiens, UniProt P11597).
T1 construct: CETP is obtained in partially purified form from human plasma by differential centrifugation and column chromatography and used for the test; from tissue; host or cells: human plasma
T1 sequence (P11597 18-493): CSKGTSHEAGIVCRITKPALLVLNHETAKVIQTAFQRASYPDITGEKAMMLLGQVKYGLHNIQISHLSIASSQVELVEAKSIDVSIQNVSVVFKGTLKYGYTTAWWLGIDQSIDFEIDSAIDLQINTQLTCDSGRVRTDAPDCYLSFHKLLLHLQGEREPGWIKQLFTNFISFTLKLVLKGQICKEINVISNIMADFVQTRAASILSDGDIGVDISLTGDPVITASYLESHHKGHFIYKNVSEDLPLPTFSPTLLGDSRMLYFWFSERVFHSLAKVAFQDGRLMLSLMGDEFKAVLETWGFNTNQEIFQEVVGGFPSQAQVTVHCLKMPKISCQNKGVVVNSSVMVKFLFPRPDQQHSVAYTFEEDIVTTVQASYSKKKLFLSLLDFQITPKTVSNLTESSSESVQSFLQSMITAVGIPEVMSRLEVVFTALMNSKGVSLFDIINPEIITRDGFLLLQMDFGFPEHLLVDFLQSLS
The test is described as follows: CETP-SPA test. The note with it: transfer of 3H-cholesterol ester from human HDL to biotinylated LDL; 37° C. for 18 h. Format: biochemical. Here is the method: (§1) CETP is obtained in partially purified form from human plasma by differential centrifugation and column chromatography and used for the test. To this end, human plasma is adjusted to a density of 1.21 g per ml using NaBr and centrifuged at 4° C. at 50 000 rpm for 18 h. The bottom fraction (d>1.21 g/ml) is applied to a Phenyl-Sepharose 26/10 HP fast flow-column (Pharmacia), washed with PBS buffer and then eluted with distilled water. 10 parts of PBS buffer and 1% (w/v) BSA are added to the eluate. The CETP-active fractions are pooled.
For testing of the CETP activity, the transfer of ^3H-cholesterol ester from human HD lipoproteins to biotinylated LD lipoproteins is measured. The reaction is ended by addition of streptavidin-SPA® beads (Amersham) and the transferred radioactivity is determined directly in a liquid scintillation counter.
In the test batch, 10 μl of HDL-3H-cholesterol ester (about 50 000 cpm) are incubated at 37° C. for 18 h with 10 μl of biotin-LDL (Amersham) in 50 mM Hepes/0.15 M NaCl/0.1% bovine serum albumin (RSA)/0.05% NaN3 pH 7.4 containing 10 μl of CETP (1 mg/ml) and 3 μl of a solution of the substance to be tested (dissolved in 10% DMSO/1% RSA). 200 μl of the SPA-streptavidin bead solution (TRKQ 7005) are then added, incubated further with shaking for 1 h and then measured in a scintillation counter. Corresponding incubations with 10 μl of buffer, 10 μl of CETP at 4° C. and 10 μl of CETP at 37° C. serve as controls.
The activity transferred in the control batches with CETP at 37° C. is rated as 100% transfer. The substance concentration at which this transfer is reduced to half is specified as the IC50 value.

The next test has as its system transgenic hCETP mice. The test is described as follows: Measurement of the in vivo activity in transgenic hCETP mice. To be noted: perorally once a day on 3 days, percentage change compared with the starting value. The method, then:
To determine the oral action on lipoproteins and triglycerides, test substance is administered perorally to transgenic mice [Dinchuk et al., BBA, 1295-1301 (1995)] using a stomach tube once a day on 3 days. For this purpose, the substances are dissolved in 10% Solutol HS 15/10% ethanol/80% of a 0.9% strength sodium chloride solution; the administration volume is generally 10 ml per kg of body weight. Before the start of the experiment, blood is withdrawn from the mice retro-orbitally in order to determine cholesterol and triglycerides in the serum. The serum is obtained as described above for hamsters by incubation at room temperature for 30 min and subsequent centrifugation at 6000 g. On the day after the last administration of substance, blood is again withdrawn from the mice in order to determine lipoproteins and triglycerides. The changes in the parameters measured are expressed as the percentage change compared with the starting value.

Test [2] concerns the target T1, CETP. The test is described as follows: CETP fluorescence test with enriched CETP. It counts as biochemical. The note with it: enriched CETP fraction from human plasma; transfer of fluorescent cholesterol ester between liposomes; 37° C. for 4 h. The method, then: as §1
Measurement of the CETP-catalyzed transfer of a fluorescent cholesterol ester between liposomes [modified according to the procedure of Bisgaier et al., J. Lipid Res. 34, 1625 (1993)]:
For the production of the donor liposomes, 1 mg of cholesteryl 4,4-difluoro-5,7-dimethyl-4-bora-3a,4a-diaza-s-indacene-3-dodecanoate (cholesteryl BODIPY® FL C12, Molecular Probes) is dissolved in 2 ml of chloroform with 5.35 mg of triolein and 6.67 mg of phosphatidylcholine. The solvent is removed at medium temperature in a SpeedVac and the residue is dried under high vacuum for 1 h. The residue is then dissolved in 600 μl of dioxane with gentle warming in an ultrasonic bath and this solution is added very slowly with ultrasonication to 63 ml of 50 mM Tris/HCl, 150 mM NaCl, 2 mM EDTA buffer pH 7.3 at room temperature. The suspension is then ultrasonicated under an N2 atmosphere for 30 minutes in the Branson ultrasonic bath at about 50 watts, the temperature being kept at about 20° C.
The acceptor liposomes are obtained analogously from 86 mg of cholesteryl oleate, 20 mg of triolein and 100 mg of phosphatidylcholine dissolved in 1.2 ml of dioxane and 114 ml of the above buffer by ultrasonication at 50 watts (20° C.) for 30 minutes.
For testing, a test mix consisting of 1 part of above buffer, 1 part of donor liposomes and 2 parts of acceptor liposomes is used.
50 μl of test mix are treated with 48 μl of enriched CETP fraction (1-3 μg), obtained from human plasma by means of hydrophobic chromatography, and 2 μl of a solution of the substance to be investigated in DMSO and incubated at 37° C. for 4 h.
The change in the fluorescence at 485/535 nm is a measure of the CE transfer; the inhibition of the transfer in comparison to the control batch without substance is determined.

For `CC(C)c1cc2c(c(-c3ccc(F)cc3)c1Cc1ccc(C(F)(F)F)cc1)[C@@H](O)CC1(CCC1)O2` [Example 32, (4S)-5-(4-Fluorophenyl)-7-isopropyl-6-[4-(trifluoromethyl)benzyl]-3,4-dihydrospiro[chromen-2,1′-cyclobutan]-4-ol], the values for the IC50 on CETP [1] and against CETP [2] were 4 nM and 19 nM, respectively. The “% increase of HDL after 3 d (dose: 3 × 3 mg/kg)” value with transgenic hCETP mice amounted to 31%.
As for `O=C(c1ccc(C(F)(F)F)cc1)c1c(C2CCCC2)cc2c(c1-c1ccc(F)cc1)[C@@H](O)CC1(CCC1)O2` [Example 44], the IC50 on CETP [1] stood at 31 nM; against CETP [2], 45 nM.
Turning to `O[C@@H](c1ccc(OC(F)(F)F)cc1)c1c(C2CCCC2)cc2c(c1-c1ccc(F)cc1)[C@@H](O)CC1(CCC1)O2` [Example 52], the half-maximal inhibitory concentration (IC50) worked out at 30 nM against CETP [1] and 198 nM at CETP [2].
With `CC(C)c1cc2c(c(-c3ccc(F)cc3)c1[C@H](F)c1ccc(C(F)(F)F)cc1)[C@@H](O)CC1(CCC1)O2` [Example 31, (4S)-5-(4-fluorophenyl)-6-{(R)-fluoro[4-(trifluoromethyl)phenyl]methyl}-7-isopropyl-3,4-dihydro-spiro[chromen-2,1′-cyclobutan]-4-ol], the values for the IC50 against CETP [1] and against CETP [2] were 20 nM and 53 nM, respectively.
For the molecule `CC(C)c1cc2c(c(-c3ccc(F)cc3)c1[C@@H](F)c1ccc(C(F)(F)F)cc1)[C@@H](O)CC(C)(C)O2` [Example 7, (4S)-5-(4-Fluorophenyl)-6-{(S)-fluoro[4-(trifluoromethyl)phenyl]methyl}-7-isopropyl-2,2-dimethylchroman-4-ol], the IC50 was 20 nM against CETP [1] and 32 nM against CETP [2]. Moreover, the “% increase of HDL after 3 d (dose: 3 × 3 mg/kg)” value in the test with transgenic hCETP mice is listed as 67%.
`CC(C)(C)c1ccc([C@H](O)c2c(C3CCCC3)cc3c(c2-c2ccc(F)cc2)[C@@H](O)CC2(CCC2)O3)cc1` [Example 48]: the figures for the IC50 at CETP [1] and at CETP [2] were 14 nM and 33 nM, respectively.
Consider `CC(C)c1cc2c(c(-c3ccc(F)cc3)c1[C@@H](O)c1ccc(C(C)(C)C)cc1)[C@@H](O)CC1(CCC1)O2` [Example 34, (4S)-6-[(S)-(4-tert-Butylphenyl)(hydroxy)methyl]-5-(4-fluorophenyl)-7-isopropyl-3,4-dihydro-spiro[chromen-2,1′-cyclobutan]-4-ol], for which the values for the IC50 at CETP [1] and on CETP [2] were 5 nM and 14 nM, respectively.
The like results for `O[C@@H](c1ccc(C(F)(F)F)cc1)c1c(C2CCCC2)cc2c(c1-c1ccc(F)cc1)[C@@H](O)CC1(CCC1)O2` [Example 45] were, in that order, 21 nM and 26 nM.
On to `CC(C)c1cc2c(c(-c3ccc(F)cc3)c1Cc1ccc(OC(F)(F)F)cc1)[C@@H](O)CC1(CCC1)O2` [Example 41, (4S)-5-(4-Fluorophenyl)-7-isopropyl-6-[4-(trifluoromethoxy)benzyl]-3,4-dihydrospiro[chromen-2,1′-cyclobutan]-4-ol], for which the 50% inhibitory concentration (IC50) on CETP [1] stood at 15 nM; on CETP [2] it was 19 nM.
For `CC(C)c1cc2c(c(C3=CCCCC3)c1C(=O)c1ccc(C(F)(F)F)cc1)[C@@H](O)CC(C)(C)O2` [Example 19, (5-Cyclohex-1-en-1-yl-4-hydroxy-7-isopropyl-2,2-dimethyl-3,4-dihydro-2H-chromen-6-yl)[4-(tri-fluoromethyl)phenyl]methanone] the same measures were 300 nM and 200 nM.
The like results for `CC(C)c1cc2c(c(-c3ccc(F)cc3)c1C(=O)c1ccc(C(F)(F)F)cc1)[C@@H](O)CC(C)(C)O2` [Example 4, [(4S)-5-(4-Fluorophenyl)-4-hydroxy-7-isopropyl-2,2-dimethyl-3,4-dihydro-2H-chromen-6-yl][4-(trifluoromethyl)phenyl]methanone] were, in that order, 62 nM and 90 nM.
With `CC(C)c1cc2c(c(-c3ccc(F)cc3)c1[C@H](F)c1ccc(C(F)(F)F)cc1)[C@@H](O)CC1(CC1)O2` [Example 58], the IC50 at CETP [1] came to 68 nM; against CETP [2], 300 nM.
As to `CC(C)c1cc2c(c(-c3ccc(F)cc3)c1[C@H](O)c1ccc(C(C)(C)C)cc1)[C@@H](O)CC1(CCC1)O2` [Example 35, (4S)-6-[(R)-(4-tert-butylphenyl)(hydroxy)methyl]-5-(4-fluorophenyl)-7-isopropyl-3,4-dihydro-spiro[chromen-2,1′-cyclobutan]-4-ol], the IC50 turned out to be 400 nM against CETP [1] and 800 nM against CETP [2].
On to `CC(C)c1cc2c(c(C3CCCC3)c1[C@H](F)c1ccc(C(F)(F)F)cc1)[C@@H](O)CC1(CCC1)O2` [Example 43, (4S)-5-cyclopentyl-6-{(R)-fluoro[4-(trifluoromethyl)phenyl]methyl}-7-isopropyl-3,4-dihydrospiro-[chroman-2,1′-cyclobutan]-4-ol], for which the 50% inhibitory concentration (IC50) at CETP [1] amounted to 100 nM; against CETP [2] it was 61 nM.
`CC(C)c1cc2c(c(-c3ccc(F)cc3)c1Cc1ccc(C(F)(F)F)cc1)[C@@H](O)CC(C)(C)O2` [Example 9, (4S)-5-(4-Fluorophenyl)-7-isopropyl-2,2-dimethyl-6-[4-(trifluoromethyl)benzyl]chroman-4-ol]: the 50% inhibitory concentration (IC50) on CETP [1] was 33 nM; at CETP [2], 90 nM.
The like results for `O=C(c1ccc(OC(F)(F)F)cc1)c1c(C2CCCC2)cc2c(c1-c1ccc(F)cc1)[C@@H](O)CC1(CCC1)O2` [Example 51] were, in that order, 100 nM and 42 nM.
Regarding `CC(C)c1cc2c(c(C3=CCCC3)c1[C@@H](O)c1ccc(C(F)(F)F)cc1)[C@@H](O)CC(C)(C)O2` [Example 22, (4S)-5-Cyclopent-1-en-1-yl-6-{(S)-hydroxy[4-(trifluoromethyl)phenyl]methyl}-7-isopropyl-2,2-di-methylchroman-4-ol], the IC50 came out at 57 nM at CETP [1] and 51 nM at CETP [2].
Regarding `CC(C)(C)c1ccc(C(=O)c2c(C3CCCC3)cc3c(c2-c2ccc(F)cc2)[C@@H](O)CC2(CCC2)O3)cc1` [Example 47], the IC50 is 38 nM against CETP [1] and 50 nM at CETP [2].
